Source: ChEMBL document CHEMBL6103636, “Development of Potent SHP2 Allosteric Inhibitors: Design, Synthesis, and Evaluation with Antitumor Effects” (J Med Chem, 2025)

Assays:
[1] = molecular target: T1, Tyrosine-protein phosphatase non-receptor type 11 (Homo sapiens, UniProt Q06124); assay: Inhibition of H2N-LN(pY)IDLDLV-(dPEG80) LST(pY)-ASINFQK-amide-activated SHP2 (unknown origin) using DiFMUP as substrate incubated for 30 mins by fluorescence based assay
T1 sequence (Q06124 whole entry): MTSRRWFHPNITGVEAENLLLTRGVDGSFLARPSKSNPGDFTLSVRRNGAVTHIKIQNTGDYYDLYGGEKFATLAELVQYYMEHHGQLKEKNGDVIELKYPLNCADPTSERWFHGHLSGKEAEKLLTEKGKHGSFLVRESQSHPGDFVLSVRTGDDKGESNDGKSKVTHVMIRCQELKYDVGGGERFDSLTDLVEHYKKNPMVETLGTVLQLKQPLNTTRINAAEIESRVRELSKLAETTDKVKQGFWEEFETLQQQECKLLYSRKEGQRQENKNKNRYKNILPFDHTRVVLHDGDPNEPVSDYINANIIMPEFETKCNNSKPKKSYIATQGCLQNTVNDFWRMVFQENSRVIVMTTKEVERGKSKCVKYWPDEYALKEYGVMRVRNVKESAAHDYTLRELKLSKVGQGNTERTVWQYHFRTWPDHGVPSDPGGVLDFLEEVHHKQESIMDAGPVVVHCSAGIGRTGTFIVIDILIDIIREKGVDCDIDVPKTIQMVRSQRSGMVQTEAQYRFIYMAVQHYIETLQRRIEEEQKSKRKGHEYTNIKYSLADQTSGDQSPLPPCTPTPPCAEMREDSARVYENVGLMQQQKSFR

KYSE-520 cell line = assay: cells; conditions: Homo sapiens, KYSE-520, 72 h
Description: Antiproliferative activity against human KYSE520 cells measured after 72 hrs by Cell Titer-Glo assay

[2] = Inhibition of ERK phosphorylation in human KYSE520 cells incubated for 2 hrs by fluorescence based assay; assay type: cell-based; conditions: KYSE-520, 2 h
[3] = Toxicity in NU/NU mouse implanted with human KYSE520 cells assessed as abnormalities in animal at 25 mg/kg, po treated for 20 days; assay type: organism-based; conditions: in vivo, 480 h, time 20 day
[4] = Toxicity in NU/NU mouse implanted with human KYSE520 cells assessed as abnormalities in lung at 25 mg/kg, po treated for 20 days by H and E staining based analysis; assay type: organism-based; conditions: in vivo, 480 h, time 20 day
[5] = Toxicity in NU/NU mouse implanted with human KYSE520 cells assessed as abnormalities in spleen at 25 mg/kg, po treated for 20 days by H and E staining based analysis; assay type: organism-based; conditions: in vivo, 480 h, time 20 day
[6] = Toxicity in NU/NU mouse implanted with human KYSE520 cells assessed as drug tolerance at 25 mg/kg, po treated for 20 days; assay type: organism-based; conditions: in vivo, 480 h, time 20 day
[7] = Toxicity in NU/NU mouse implanted with human KYSE520 cells assessed as abnormalities in kidney at 25 mg/kg, po treated for 20 days by H and E staining based analysis; assay type: organism-based; conditions: in vivo, 480 h, time 20 day
[8] = Toxicity in NU/NU mouse implanted with human KYSE520 cells assessed as abnormalities in liver at 25 mg/kg, po treated for 20 days by H and E staining based analysis; assay type: organism-based; conditions: in vivo, 480 h, time 20 day
[9] = Toxicity in NU/NU mouse implanted with human KYSE520 cells assessed as body weight loss at 25 mg/kg, po treated for 20 days; assay type: organism-based; conditions: in vivo, 480 h, time 20 day
[10] = Toxicity in NU/NU mouse implanted with human KYSE520 cells assessed as abnormalities in heart at 25 mg/kg, po treated for 20 days by H and E staining based analysis; assay type: organism-based; conditions: in vivo, 480 h, time 20 day

IC50 [1] | IC50 (KYSE-520 cell line) | IC50 [2] | SMILES | further results
623 nM |  |  | Nc1nccc(Sc2ccc3nc(N4CC5CC(C4)N5)sc3n2)c1Cl | 
68.1 nM | 1200 nM | 175 nM | NC1COCC12CCN(c1nc3ccc(Sc4cccc(NC(=O)c5c(O)nc6ccccn6c5=O)c4Cl)nc3s1)CC2 (centres undefined) | 
837 nM |  |  | NC1COCC12CCN(c1nc3ccc(Sc4ccnc5c4OC[C@@H]4CCCN54)cc3s1)CC2 (some centres undefined) | 
372 nM |  |  | Nc1cccc(Sc2ccc3nc(N4CCCC(N)CC4)sc3n2)c1Cl (centres undefined) | 
434 nM |  |  | NC1COCC12CCN(c1nc3ccc(Sc4ccnc5c4OC[C@@H]4CCCN54)nc3s1)CC2 (some centres undefined) | 
70.2 nM | 9250 nM | 2150 nM | NC1COCC12CCN(c1nc3ccc(Sc4cccc(NC(=O)C5=C(O)CN(c6ccccc6)C5=O)c4Cl)nc3s1)CC2 (centres undefined) | 
82.7 nM | > 10000 nM | > 10000 nM | CCC1C(O)=C(C(=O)Nc2cccc(Sc3ccc4nc(N5CCC(C)(N)CC5)sc4n3)c2Cl)C(=O)N1C (centres undefined) | 
78.9 nM |  |  | NC1COCC12CCN(c1ncc(Sc3ccnc4c3OC[C@@H]3CCCN43)c3nncn13)CC2 (some centres undefined) | 
 | 241 nM | 49 nM | C[C@@H]1OCC2(CCN(c3cnc(Sc4ccnc(N)c4Cl)c(N)n3)CC2)[C@@H]1N [BATOPROTAFIB] | Activity [3]: Non-toxic; Activity [4]: Non-toxic; Activity [5]: Non-toxic; Activity [6]: Non-toxic; Activity [7]: Non-toxic; Activity [8]: Non-toxic; Activity [9]: Non-toxic; Activity [10]: Non-toxic
